Measurements taken from patent EP0745595A1, “3-(3-Aryloxyphenyl)-1-(substituted methyl)-s-triazine-2,4,6-oxo or thiotrione herbicidal agents” (American Cyanamid Company, priority 1995, dated 1996).

Assays:
Format in all cases: in vivo
[1] = test system: ABUTILON THEOPHRASTI, MEDIC.; assay: Preemergence herbicidal evaluation, ABUTH (Velvetleaf); conditions: rated four to five weeks after treatment
Excerpt: (§1) Results of herbicide evaluation are expressed on a rating scale (0-9). The scale is based upon a visual observation of plant stand, vigor, malformation, size, chlorosis and overall plant appearance as compared with a control.
(§2) The preemergence herbicidal activity of the test compounds of the present invention is exemplified by the following tests in which the seeds of a variety of monocotyledonous and dicotyledonous plants are separately mixed with potting soil and planted on top of approximately one inch of soil in separate pint cups. […] The treated cups are then placed on greenhouse benches, watered and cared for in accordance with conventional greenhouse procedures. From four to five weeks after treatment, the tests are terminated and each cup is examined and rated according to the rating system provided in Example 40.
(§3) The compounds evaluated are reported by compound number given in Example 40.

[2] = test system: AMBROSIA ARTEMISIIFOLIA, L.; assay: Preemergence herbicidal evaluation, AMBEL (Ragweed, Common); conditions: rated four to five weeks after treatment
In short: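 Rated 0-9 by visual comparison with control (stand, vigor, malformation, size, chlorosis, overall appearance) four to five weeks after preemergence soil spray. Dose equivalent to about 0.125 to 0.50 kg per hectare, applied in aqueous acetone to freshly seeded cups kept in greenhouse.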

[3] = test system: CASSIA OBTUSIFOLIA, L.; assay: Preemergence herbicidal evaluation, CASOB (Sicklepod); conditions: rated four to five weeks after treatment
In short: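 Seeds of various monocot and dicot plants, including sicklepod, were each mixed with potting soil and sown on roughly one inch of soil in separate pint cups for preemergence testing. Treated cups were kept on greenhouse benches, watered and maintained conventionally. Four to five weeks after treatment, each cup was visually rated on a 0-9 scale against a control.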

[4] = test system: IPOMOEA SPP.; assay: Preemergence herbicidal evaluation, IPOSS (Morningglory spp.); conditions: rated four to five weeks after treatment
Excerpt: as §1, §2, §3

[5] = test system: ECHINOCHLOA CRUS-GALLI, (L) BEAU; assay: Preemergence herbicidal evaluation, ECHCG (Barnyardgrass); conditions: rated four to five weeks after treatment
In short: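 Barnyardgrass seeds were mixed with potting soil and planted on about one inch of soil in pint cups for preemergence testing. Treated cups were kept on greenhouse benches, watered and maintained by standard greenhouse practice. After four to five weeks, each cup was visually rated on a 0-9 scale against an untreated control.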

[6] = test system: SETARIA VIRIDIS, (L) BEAU; assay: Preemergence herbicidal evaluation, SETVI (Foxtail, Green); conditions: rated four to five weeks after treatment
Excerpt: as §1, §2, §3

[7] = test system: CYPERUS IRIA; assay: Preemergence weed control under flooded paddy conditions, CYPIR (Rice Flatsedge); conditions: preemergence, 3-4 weeks after treatment
In short: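 Seeds or propagating organs of rice flatsedge were planted in the top 0.5 cm of silt loam soil in 32 oz. plastic containers, 10.5 cm across and without drainage holes. Water was kept 1.5 to 3 cm above the soil throughout. Treated containers were kept on greenhouse benches, and herbicidal effect was visually rated on a 0-9 scale against a control.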

[8] = test system: CYPERUS SEROTINUS, ROTTB.; assay: Preemergence weed control under flooded paddy conditions, CYPSE (Flatsedge); conditions: preemergence, 3-4 weeks after treatment
In short: (§4)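 Flooded paddy preemergence test: seeds/propagating organs in top 0.5 cm silt loam, water held 1.5-3 cm above soil. Dosing by pipette into flood water, aqueous/acetone 50/50 v/v, ~0.5, 0.25, 0.125, 0.063 kg/ha a.i. Greenhouse; read at 3-4 wk, 0-9 visual scale.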

[9] = test system: SAGITTARIA PYGMAEA, L.; assay: Preemergence weed control under flooded paddy conditions, SAGPY (Arrowhead (Pygmaea)); conditions: preemergence, 3-4 weeks after treatment
In short: as §4

[10] = test system: ORYZA SATIVA, L. TEBONNET; assay: Rice tolerance to post-transplant applications under flooded paddy conditions, ORYSAT (Rice, Tebonnet); conditions: post-transplant rice, 3-4 weeks after treatment
In short: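 Post-transplant paddy test: compound applied 3 d after transplanting to flooded soil (1.5-3 cm water), ~0.063-0.5 kg/ha a.i., 50/50 aq/acetone. Silt loam, 2 × 10-d seedlings/pot. Greenhouse 3-4 wk, visual 0-9 score vs control.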

COC(=O)Cn1c(=O)n(C)c(=O)n(-c2cc(Oc3c(Cl)cccc3Cl)ccc2[N+](=O)[O-])c1=O [Compound 37, Methyl 3-[5-(2,6-dichlorophenoxy)-2-nitrophenyl]tetrahydro-5-methyl-2,4,6-trioxo-s-triazine-1(2H)-acetate]
0.0: ABUTH herbicidal rating ([1]; Rate 0.125 kg/ha) | ABUTH herbicidal rating ([1]; Rate 0.250 kg/ha) | ABUTH herbicidal rating ([1]; Rate 0.500 kg/ha) | AMBEL herbicidal rating ([2]; Rate 0.125 kg/ha) | AMBEL herbicidal rating ([2]; Rate 0.250 kg/ha) | AMBEL herbicidal rating ([2]; Rate 0.500 kg/ha) | CASOB herbicidal rating ([3]; Rate 0.125 kg/ha) | CASOB herbicidal rating ([3]; Rate 0.250 kg/ha) | CASOB herbicidal rating ([3]; Rate 0.500 kg/ha) | IPOSS herbicidal rating ([4]; Rate 0.125 kg/ha) | IPOSS herbicidal rating ([4]; Rate 0.250 kg/ha) | IPOSS herbicidal rating ([4]; Rate 0.500 kg/ha) | ECHCG herbicidal rating ([5]; Rate 0.125 kg/ha) | ECHCG herbicidal rating ([5]; Rate 0.250 kg/ha) | ECHCG herbicidal rating ([5]; Rate 0.500 kg/ha) | SETVI herbicidal rating ([6]; Rate 0.125 kg/ha) | SETVI herbicidal rating ([6]; Rate 0.250 kg/ha) | SETVI herbicidal rating ([6]; Rate 0.500 kg/ha) | Herbicidal effect rating, CYPIR ([7]; 0.063 kg/ha) | Herbicidal effect rating, CYPIR ([7]; 0.125 kg/ha) | Herbicidal effect rating, CYPIR ([7]; 0.250 kg/ha) | Herbicidal effect rating, CYPIR ([7]; 0.500 kg/ha) | Herbicidal effect rating, CYPSE ([8]; 0.063 kg/ha) | Herbicidal effect rating, CYPSE ([8]; 0.125 kg/ha) | Herbicidal effect rating, CYPSE ([8]; 0.250 kg/ha) | Herbicidal effect rating, CYPSE ([8]; 0.500 kg/ha) | Herbicidal effect rating, SAGPY ([9]; 0.063 kg/ha) | Herbicidal effect rating, SAGPY ([9]; 0.125 kg/ha) | Herbicidal effect rating, SAGPY ([9]; 0.250 kg/ha) | Herbicidal effect rating, SAGPY ([9]; 0.500 kg/ha) | Herbicidal effect rating, ORYSAT ([10]; 0.063 kg/ha)
2.0: Herbicidal effect rating, ORYSAT ([10]; 0.500 kg/ha)
1.0: Herbicidal effect rating, ORYSAT ([10]; 0.125 kg/ha) | Herbicidal effect rating, ORYSAT ([10]; 0.250 kg/ha)
